This note sets out measurements from patent publication US5073566A, “Angiotensin II antagonist 1,3-imidazoles and use thereas” (Eli Lilly and Company, priority 1989, dated 1991).

Where two headings read alike, the source gives them in different places.

The target of assay [1] is T1, angiotensin-induced vasoconstriction (rabbit aorta) (Oryctolagus cuniculus, UniProt P34976).
T1 construct: the thoracic aortas were removed and cleaned of excess fat and connective tissue; from tissue; host or cells: thoracic aorta rings of New Zealand white rabbits
T1 sequence (P34976 1-359): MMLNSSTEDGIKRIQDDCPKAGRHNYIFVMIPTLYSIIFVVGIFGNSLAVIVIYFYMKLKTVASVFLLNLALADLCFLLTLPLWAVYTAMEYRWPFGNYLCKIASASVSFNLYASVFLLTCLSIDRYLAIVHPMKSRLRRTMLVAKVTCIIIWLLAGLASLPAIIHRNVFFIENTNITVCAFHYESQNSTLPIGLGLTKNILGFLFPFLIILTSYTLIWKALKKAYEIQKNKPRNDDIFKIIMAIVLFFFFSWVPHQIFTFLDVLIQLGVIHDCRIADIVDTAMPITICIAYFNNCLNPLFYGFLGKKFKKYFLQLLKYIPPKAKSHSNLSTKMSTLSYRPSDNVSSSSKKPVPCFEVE
Description: Rabbit Aorta Test System: antagonism of angiotensin II-induced contraction of aortic rings. It counts as cell-based, New Zealand white rabbits.
Description: The ability to antagonize angiotensin-induced vasoconstriction was evaluated in the rabbit aorta test system.
New Zealand white rabbits (Hazelton, 2-3 kg) were sacrificed by cervical dislocation and the thoracic aortas were removed and cleaned of excess fat and connective tissue. Rings of tissue (3 mm wide) were mounted in 10 ml tissue baths between 2 L-shaped stainless steel hooks. The lower hook was attached to a stationary rod and the upper hook to a force displacement transducer (Grass model FT.03). The bath chambers were maintained at 37° C., aerated with 95% O2 /5% CO2, and contained physiological solution of the following composition (mM): NaCl, 117; glucose, 5.6; NaH2 PO4, 1.0; MgSO4, 0.7; KCl, 5.2; CaCl2, 1.8; NaHCO3, 26; and phentolamine HCl, 0.003.
Rings were equilibrated for 1 hour with 2 g of tension. During the equilibration period, the tissues were washed by overflow every 15 minutes. Rings were then exposed to 10^-8 M angiotensin II (AII) and were allowed to contract until a steady state was reached. Tissues were then washed every 15 minutes for 1 hour. This was repeated every hour until the AII response stabilized. A cumulative concentration-response curve to AII (10^-10 to 10^-7 M) was then obtained. At the conclusion of the concentration-response curve, tissues were washed every 2 minutes until baseline tension was reached, then every 15 minutes for 30 minutes. Compounds were added in a volume of 10 μl DMSO and allowed to incubate for 30 minutes before repeating the concentration-response curve to AII. Contractions to AII were expressed as a percent of the maximum contraction obtained in the control curve (the first AII concentration-response curve). EC50 's (concentration that contracted the tissues to 1/2 the control maximum) for each curve were calculated using a 4 parameter logistics model (NonLin, SAS institute).

Another assay has as its system angiotensin II receptor. The assay can be described thus: Adrenal Glomerulosa Test System: I125-angiotensin II binding to adrenal membranes. Particulars: percent inhibition of I125 angiotensin binding at 10^-5 M of antagonist; rat adrenal membranes; 0.1 nM I125-angiotensin II.
The mark [2] stands for this setting: pA2 = -log KB, KB = [molar concentration of antagonist]/[(EC50 AII with antagonist/EC50 AII without antagonist)-1], 30 min incubation, AII 10^-10 to 10^-7 M, read-out: Rabbit Aorta (pA2) (converted).

Description for angiotensin II receptor: The ability for compounds of Formula I to block angiotensin II receptor binding was determined using the adrenal glomerulosa assay.
Binding of I^125 -angiotensin II to adrenal membranes was routinely carried out in 96-well filtration plates. Adrenal membranes were prepared from the capsular portion (glomerulosal layer attached) of rat adrenal glands by differential centrifugation. Briefly, capsules were homogenized in a solution containing sucrose, 250 mM; MgCl2, 1 mM; and tris, 5 mM at pH 7.5 and 4° C. using a polytron at setting 5 for 20 seconds. The homogenate was stirred, gently, for 15 minutes at 4° C. and then centrifuged 10 minutes, at 1000×g, 4° C. The supernatant was centrifuged 30 minutes, at 30,000 ×g, 4° C. and the resulting pellet resuspended in 50 mM tris. Membrane preparations were stored in aliquots at -70° C. until used. Binding of I^125 -angiotensin II to adrenal membranes was performed at room temperature for 90 minutes in 96-well plates containing a hydrophilic polyvinylidene fluoride membrane (0.45 μm, millipore-GV multiscreen). Each 250 μl incubate contained the following (final concentration): tris, 50 mM; NaCl, 120 mM; MgCl2, 5 mM; dithiothrietol 1 mM; bovine serum albumin, 0.05%; I^125 -angiotensin II, 0.1 nM; and adrenal membrane protein, 8-15 μg. Antagonists were added in concentrations from 10 nM to 100 μM. Non-specific binding was measured in the presence of 0.1 μM Sar1, Ile8 angiotensin II. Binding was terminated by vacuum filtration. Receptor-ligand complex trapped on filters was washed 3 times with 300 μl ice-cold wash solution (tris, 50 mM; NaCl, 120 mM; MgCl2, 5 mM; dithiothrietol, 1 mM). Filter discs were dried, punched out and counted in a gamma counter at 52% efficiency. Specific binding represented 96% of total binding (approximately 150 fmol angiotensin II/mg protein). Data are expressed as the percent inhibition of I^125 angiotensin binding at 10^-5 M of antagonist.

On to `CCCCCCC(C(=O)O)c1ccc(NC(=O)C2(O)c3ccccc3-c3ccccc32)cc1` (stereo not drawn) [Example 46, α-Hexyl-4-[(9-hydroxy-9H-fluoren-9-ylcarbonyl)-amino]benzeneacetic acid], for which the Kb in assay [1] stood at 43.7 µM. Besides, the “Adrenal Glomerulosa (% Inhibition of Binding)” value with angiotensin II receptor amounted to 39%.
In the case of `CCCCCCC(C(=O)O)n1nnc(NC(=O)c2ccccc2C(=O)O)n1` (stereo not drawn) [Example 47, 5-[(2-Carboxybenzoyl)amino]-α-hexyl-2H-tetrazole-2-acetic acid], the Kb in assay [1] (setting [2]) is 5.01 µM. Also, the “Adrenal Glomerulosa (% Inhibition of Binding)” value in the assay with angiotensin II receptor was found to be 39%.
Regarding `CCCCCCC(c1nnn[nH]1)n1cnc(C(=O)NC(c2ccccc2)c2ccccc2)c1` (stereo not drawn) [Example 48, 1-[1-(Tetrazol-5-yl)heptyl]-N-(diphenylmethyl)-1H-imidazole-4-carboxamide], the Kb in assay [1] (setting [2]) is 12 µM. Moreover, the “Adrenal Glomerulosa (% Inhibition of Binding)” value in the assay on angiotensin II receptor was determined as 61%.
Taken in the same sequence, the figures for `CCCCCCC(c1cccc(C(=O)NC(c2ccccc2)c2ccccc2)c1)c1nnn[nH]1` (stereo not drawn) [Example 49, N-(Diphenylmethyl)-3-[1-(tetrazol-5-yl)-heptyl]benzamide] were 40.7 µM and 9%.
For `CCCCCCC(c1nn[nH]n1)n1cnc(NC(=O)c2ccccc2C(=O)O)c1` (stereo not drawn) [Example 50, 2-[({1-[1-(Tetrazol-5-yl)heptyl]-1H-imidazol-4-yl}amino)carbonyl]benzoic acid hemihydrate], in assay [1] (setting [2]), the Kb was 0.851 µM. In addition, in the assay on angiotensin II receptor, the “Adrenal Glomerulosa (% Inhibition of Binding)” value is on record as 42%.
Taken in the same sequence, the figures for `CCCCCCC(C(=O)O)n1cnc(NC(=O)C(c2ccccc2)c2ccccc2)c1.Cl` (stereo not drawn) [Example 51, α-Hexyl-4-[(diphenylacetyl)amino]-1H-imidazole-1-acetic acid hydrochloride] were 2.69 µM and 80%.
As for `CCCCCCC(C(=O)O)n1cnc(C(=O)NC(c2ccccc2)c2ccccc2)n1.Cl` (stereo not drawn) [Example 52, α-Hexyl-3-{[(diphenylmethyl)amino]carbonyl}-1H-1,2,4-triazole-1-acetic acid hydrochloride], in assay [1] (setting [2]), the Kb is 8.32 µM. Besides, the “Adrenal Glomerulosa (% Inhibition of Binding)” value in the assay with angiotensin II receptor turned out to be 44%.
For the molecule `CCCCCCC(C(=O)O)n1ccc(C(=O)NC(c2ccccc2)c2ccccc2)c1` (stereo not drawn) [Example 53, 3-{[(Diphenylmethyl)amino]carbonyl}-α-hexyl-1H-pyrrole-1-acetic acid], the Kb in assay [1] (setting [2]) is 6.03 µM. The “Adrenal Glomerulosa (% Inhibition of Binding)” value in the assay with angiotensin II receptor amounted to 42%.
Regarding `CCCCCCC(C(=O)O)n1cc(C(=O)NC(c2ccccc2)c2ccccc2)cn1` (stereo not drawn) [Example 54, 4-{[(Diphenylmethyl)amino]carbonyl}-α-hexyl-1H-pyrazole-1-acetic acid], the Kb in assay [1] (setting [2]) is 13.8 µM. Further, the “Adrenal Glomerulosa (% Inhibition of Binding)” value in the assay with angiotensin II receptor came out at 40%.
Take `CCCCCC(C(=O)O)c1ccc(Oc2ccccc2C(=O)O)cc1` (stereo not drawn) [Example 55, α-Pentyl-4-(2-carboxyphenoxy)phenylacetic acid]: the Kb in assay [1] (setting [2]) was 1.26 µM. The “Adrenal Glomerulosa (% Inhibition of Binding)” value with angiotensin II receptor was determined as 13%.
With `CCCCCCC(C(=O)O)c1ccc(C(=O)c2ccccc2C(=O)O)cc1` (stereo not drawn) [Example 56, α-Hexyl-4-(2-carboxybenzoyl)benzeneacetic acid], in assay [1] (setting [2]), the Kb is 1.05 µM. The “Adrenal Glomerulosa (% Inhibition of Binding)” value with angiotensin II receptor is listed as 75%.
As for `CCCCCCC(C(=O)O)n1cnc(C(=O)NC2CCc3ccccc32)c1.Cl` (stereo not drawn) [Example 57, 4-{[(2,3-Dihydro-1H-inden-1-yl)amino]-carbonyl}-α-hexyl-1H-imidazole-1-acetic acid hydrochloride], the Kb in assay [1] (setting [2]) is 2.63 µM. In addition, the “Adrenal Glomerulosa (% Inhibition of Binding)” value in the assay on angiotensin II receptor came to 77%.
Regarding `CCCCCCC(C(=O)O)n1cnc(C(=O)NC(c2ccccc2)c2ccccc2)c1.Cl` (stereo not drawn) [Example 58, 4-{[(Diphenylmethyl)amino]carbonyl}-α-hexyl-1H-imidazole-1-aceticacid hydrochloride], the Kb in assay [1] (setting [2]) is 4.27 µM. Moreover, the “Adrenal Glomerulosa (% Inhibition of Binding)” value in the assay with angiotensin II receptor amounted to 69%.
In assay [1], `CCCCCCC(C(=O)O)n1cnc(NC(=O)C2(O)c3ccccc3-c3ccccc32)c1` (stereo not drawn) [Example 59, α-Hexyl-4-[(9-hydroxy-9H-fluoren-9-ylcarbonyl)-amino]-1H-imidazole-1-acetic acid] had a Kb of 3.09 µM. In the assay with angiotensin II receptor, the “Adrenal Glomerulosa (% Inhibition of Binding)” value was 67%.
Consider `CCCCCC(CO)n1cnc(NC(=O)c2ccccc2C(=O)O)c1` (stereo not drawn) [Example 60, 2-[({1-[1-(Hydroxymethyl)hexyl]-1H-imidazol-4-yl}amino)carbonyl]benzoic acid], for which the Kb in assay [1] (setting [2]) is 8.32 µM. Further, in the assay with angiotensin II receptor, the “Adrenal Glomerulosa (% Inhibition of Binding)” value worked out at 15%.
Turning to `CCCCCCC(C(=O)O)n1cnc(NC(=O)c2ccccc2O)c1` (stereo not drawn) [Example 76, α-Hexyl-4-[(2-hydroxybenzoyl)amino]-1H-imidazole-1-acetic acid], in assay [1] (setting [2]), the Kb is 1.26 µM. Besides, the “Adrenal Glomerulosa (% Inhibition of Binding)” value with angiotensin II receptor is 35%.
Taken in the same sequence, the figures for `CCCCCCC(C(=O)O)n1cnc(NC(=O)c2c(O)ccc3ccccc23)c1` (stereo not drawn) [Example 77, α-Hexyl-4-{[(2-hydroxy-1-naphthalenyl)-carbonyl]amino}imidazole-1-acetic acid] were 5.5 µM and 36%.
Regarding `CCCCCCC(C(=O)O)n1cnc(NC(=O)c2cccc(O)c2)c1` (stereo not drawn) [Example 78, α-Hexyl-4-[(3-hydroxybenzoyl)amino]-1H-imidazole-1-acetic acid hemihydrate], the Kb in assay [1] (setting [2]) is 7.94 µM. Also, in the assay with angiotensin II receptor, the “Adrenal Glomerulosa (% Inhibition of Binding)” value came to 21%.
Taken in the same sequence, the figures for `CCCCCCC(C(=O)O)n1cnc(NC(=O)c2ccc(O)c(O)c2)c1` (stereo not drawn) [Example 79, α-Hexyl-4-[(3,4-dihydroxybenzoyl)amino]-1H-imidazole-1-acetic acid (1.75 hydrate)] were 11 µM and 18%.
Taken in the same sequence, the figures for `CCCCCCC(C(=O)O)n1cnc(C(=O)Nc2ccccc2CO)c1.Cl` (stereo not drawn) [Example 83, α-Hexyl-4-({[2-(hydroxymethyl)phenyl]-amino}carbonyl)-1H-imidazole-1-acetic acid hydrochloride] were 3.89 µM and 53%.
As to `CCCCCCC(C(=O)O)n1cnc(C(=O)Nc2ccccc2CCCCO)c1.Cl` (stereo not drawn) [Example 84, α-Hexyl-4-({[2-(4-hydroxybutyl)phenyl]-amino}carbonyl)-1H-imidazole-1-acetic acid hydrochloride], the Kb in assay [1] (setting [2]) is 2.29 µM. In the assay on angiotensin II receptor, the “Adrenal Glomerulosa (% Inhibition of Binding)” value amounted to 77%.
Consider `CCCCCCC(C(=O)O)n1cnc(C(=O)Nc2cccc(CO)c2)c1.Cl` (stereo not drawn) [Example 85, α-Hexyl-4-({[3-(hydroxymethyl)phenyl]-amino}carbonyl)-1H-imidazole-1-acetic acid hydrochloride], for which the Kb in assay [1] (setting [2]) was 15.8 µM. In addition, the “Adrenal Glomerulosa (% Inhibition of Binding)” value in the assay with angiotensin II receptor is on record as 0%.
In the case of `CCCCCCC(C(=O)O)n1cnc(C(=O)Nc2ccccc2CCO)c1.Cl` (stereo not drawn) [Example 86, α-Hexyl-4-({[2-(2-hydroxyethyl)phenyl]-amino}carbonyl)-1H-imidazole-1-acetic acid hydrochloride], the Kb in assay [1] (setting [2]) is 3.24 µM. Also, the “Adrenal Glomerulosa (% Inhibition of Binding)” value in the assay with angiotensin II receptor is 57%.
`CCCCCCC(C(=O)O)n1cnc(C(=O)Nc2ccc(CCO)cc2)c1.Cl` (stereo not drawn) [Example 87, α-Hexyl-4-({[4-(2-hydroxyethyl)phenyl]-amino}carbonyl)-1H-imidazole-1-acetic acid hydrochloride]: in assay [1] (setting [2]), the Kb is 23.4 µM. Further, the “Adrenal Glomerulosa (% Inhibition of Binding)” value in the assay on angiotensin II receptor was determined as 7%.
